In ChEMBL document CHEMBL1133986, “Design and synthesis of new potent human cytomegalovirus (HCMV) inhibitors based on internally hydrogen-bonded 1,6-naphthyridines” (Bioorg Med Chem Lett, 2001):
≈ marks a conversion by molar mass, not a printed value.

Experiments:
Hs68 [1] = test: Cytotoxicity against the Hs 68 cell line; format: functional; settings: Homo sapiens
Hs68 [2] = test: Inhibitory activity against Human cytomegalovirus (HCMV) in Hs 68 cell line determined by plaque reduction assay; format: functional, cell-based

Row | Structure (SMILES) | IC50 (Hs68 [2]) [µg/mL] | CC50 (Hs68 [1]) [µg/mL]
1 | CC(C)Oc1ccccc1NC(=O)Nc1ccc2cnccc2n1 | 0.03 (≈ 0.0931 µM) | 30.2 (≈ 93.7 µM)
2 | CCOc1ccccc1C/N=C(\S)c1ccc2cnccc2n1 | 0.1 (≈ 0.309 µM) | 4.6 (≈ 14.2 µM)
3 | CC(C)Oc1ccccc1C/N=C(\S)c1ccc2cnccc2n1 | 0.16 (≈ 0.474 µM) | 11.1 (≈ 32.9 µM)
4 | O=C(Nc1ccccc1)Nc1ccc2cnccc2n1 | > 25 | > 100
5 | COc1ccccc1C/N=C(\S)c1ccc2cnccc2n1 | 0.93 (≈ 3.01 µM) | 8.1 (≈ 26.2 µM)
6 | CC(C)Oc1ccccc1CNC(=O)Nc1ccc2cnccc2n1 | 0.01 (≈ 0.0297 µM) | 18.9 (≈ 56.2 µM)
7 | COc1ccccc1CNC(=O)Nc1ccc2cnccc2n1 | 1 (≈ 3.24 µM) | 13 (≈ 42.2 µM)
8 | O=C(NCc1ccccc1)Nc1ccc2cnccc2n1 | 0.29 (≈ 1.04 µM) | 0.37 (≈ 1.33 µM)

Continued, in another order:

Row | IC50 (Hs68 [2]) [µg/mL] | Structure (SMILES) | CC50 (Hs68 [1]) [µg/mL]
9 | > 25 | CCOc1ccccc1NC(=O)Nc1nc2ccncc2cc1C | > 100
10 | 1.2 (≈ 4.08 µM) | COc1ccccc1NC(=O)Nc1ccc2cnccc2n1 | 33.9 (≈ 115 µM)
11 | 0.46 (≈ 1.19 µM) | CCOc1ccccc1NC(=O)Nc1ccc2cncc(Br)c2n1 | 9.3 (≈ 24 µM)
12 | > 25 | CCOc1ccccc1NC(=O)Nc1nc2ccncc2cc1C#N | < 25
13 | 0.14 (≈ 0.454 µM) | CCOc1ccccc1NC(=O)Nc1ccc2cnccc2n1 | 1.7 (≈ 5.51 µM)
